Data from article PMC12090182, “Repurposing of the RIPK1-Selective Benzo[1,4]oxazepin-4-one Scaffold for the Development of a Type III LIMK1/2 Inhibitor” (ACS Chemical Biology, 2025).

Tested on: MRC-9 cells
Test: Multiplex high-content viability assessment
Format: cell-based
Details: for Cell count normalized to cells treated with DMSO control / Cell count per well / Population Fragmented Nuclei (%) / Population Healthy Nuclei (%) / Population Pyknosed Nuclei (%) / Population apoptotic cell (%) / Population cell that influence microtubule strucutre (%) / Population with increased mitochondrial mass (%) / Population with membrane disruption (%): human fibroblast
Summary of the method: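 HEK293T and U2OS cells (DMEM) and MRC-9 fibroblasts (EMEM) exposed to compounds at 1 and 10 μM. Live-cell confocal imaging of cell shape and fluorescence before and at 12, 24 and 48 h. Normalized to 0.1% DMSO; biological duplicates with SEM.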

With CN1C(=O)[C@@H](N2CCc3c(C(N)=O)nn(Cc4ccccc4)c3C2=O)COc2ccccc21 [Compound 11] the “Cell count normalized to cells treated with DMSO control” value (shortened to “Cell count normalized to cells treated”) (1 µM, 0 h, replicate 1) was 1.108, the “Cell count per well” value (1 µM, 0 h, replicate 1) was 166 and the “Population Fragmented Nuclei (%)” value (1 µM, 0 h, replicate 1) was 16.15%. For the same compound, the “Population Healthy Nuclei (%)” value (1 µM, 0 h, replicate 1) was 68.94%, the “Population Pyknosed Nuclei (%)” value (1 µM, 0 h, replicate 1) was 14.91% and the “Population apoptotic cell (%)” value (1 µM, 0 h, replicate 1) was 29.17%. The “Population cell that influence microtubule strucutre (%)” value (1 µM, 0 h, replicate 1) was 21.62%, the “Population with increased mitochondrial mass (%)” value (1 µM, 0 h, replicate 1) was 7.21% and the “Population with membrane disruption (%)” value (1 µM, 0 h, replicate 1) was 0.00%. The “Cell count normalized to cells treated” value (1 µM, 0 h, replicate 2) was 0.9027, the “Cell count per well” value (1 µM, 0 h, replicate 2) was 161 and the “Population Fragmented Nuclei (%)” value (1 µM, 0 h, replicate 2) was 20.65%. The “Population Healthy Nuclei (%)” value (1 µM, 0 h, replicate 2) was 50.97%, the “Population Pyknosed Nuclei (%)” value (1 µM, 0 h, replicate 2) was 28.39% and the “Population apoptotic cell (%)” value (1 µM, 0 h, replicate 2) was 29.55%. For the same compound, the “Population cell that influence microtubule strucutre (%)” value (1 µM, 0 h, replicate 2) was 43.04%, the “Population with increased mitochondrial mass (%)” value (1 µM, 0 h, replicate 2) was 7.59% and the “Population with membrane disruption (%)” value (1 µM, 0 h, replicate 2) was 5.06%. For the same compound, the “Cell count normalized to cells treated” value (1 µM, 12 h, replicate 1) was 1.109, the “Cell count per well” value (1 µM, 12 h, replicate 1) was 167 and the “Population Fragmented Nuclei (%)” value (1 µM, 12 h, replicate 1) was 8.64%. The “Population Healthy Nuclei (%)” value (1 µM, 12 h, replicate 1) was 75.31%, the “Population Pyknosed Nuclei (%)” value (1 µM, 12 h, replicate 1) was 16.05% and the “Population apoptotic cell (%)” value (1 µM, 12 h, replicate 1) was 34.62%. The “Population cell that influence microtubule strucutre (%)” value (1 µM, 12 h, replicate 1) was 20.49%, the “Population with increased mitochondrial mass (%)” value (1 µM, 12 h, replicate 1) was 3.28% and the “Population with membrane disruption (%)” value (1 µM, 12 h, replicate 1) was 0.82%. For the same compound, the “Cell count normalized to cells treated” value (1 µM, 12 h, replicate 2) was 0.8825, the “Cell count per well” value (1 µM, 12 h, replicate 2) was 147 and the “Population Fragmented Nuclei (%)” value (1 µM, 12 h, replicate 2) was 22.70%. For the same compound, the “Population Healthy Nuclei (%)” value (1 µM, 12 h, replicate 2) was 46.81%, the “Population Pyknosed Nuclei (%)” value (1 µM, 12 h, replicate 2) was 30.50% and the “Population apoptotic cell (%)” value (1 µM, 12 h, replicate 2) was 34.88%. The “Population cell that influence microtubule strucutre (%)” value (1 µM, 12 h, replicate 2) was 56.06%, the “Population with increased mitochondrial mass (%)” value (1 µM, 12 h, replicate 2) was 10.61% and the “Population with membrane disruption (%)” value (1 µM, 12 h, replicate 2) was 4.55%. For the same compound, the “Cell count normalized to cells treated” value (1 µM, 24 h, replicate 1) was 1.1208, the “Cell count per well” value (1 µM, 24 h, replicate 1) was 169 and the “Population Fragmented Nuclei (%)” value (1 µM, 24 h, replicate 1) was 16.36%. The “Population Healthy Nuclei (%)” value (1 µM, 24 h, replicate 1) was 70.30%, the “Population Pyknosed Nuclei (%)” value (1 µM, 24 h, replicate 1) was 13.33% and the “Population apoptotic cell (%)” value (1 µM, 24 h, replicate 1) was 45.45%. The “Population cell that influence microtubule strucutre (%)” value (1 µM, 24 h, replicate 1) was 18.10%, the “Population with increased mitochondrial mass (%)” value (1 µM, 24 h, replicate 1) was 3.45% and the “Population with membrane disruption (%)” value (1 µM, 24 h, replicate 1) was 1.72%. The “Cell count normalized to cells treated” value (1 µM, 24 h, replicate 2) was 0.8977, the “Cell count per well” value (1 µM, 24 h, replicate 2) was 148 and the “Population Fragmented Nuclei (%)” value (1 µM, 24 h, replicate 2) was 25.34%. For the same compound, the “Population Healthy Nuclei (%)” value (1 µM, 24 h, replicate 2) was 47.26%, the “Population Pyknosed Nuclei (%)” value (1 µM, 24 h, replicate 2) was 27.40% and the “Population apoptotic cell (%)” value (1 µM, 24 h, replicate 2) was 50.00%. For the same compound, the “Population cell that influence microtubule strucutre (%)” value (1 µM, 24 h, replicate 2) was 57.97%, the “Population with increased mitochondrial mass (%)” value (1 µM, 24 h, replicate 2) was 11.59% and the “Population with membrane disruption (%)” value (1 µM, 24 h, replicate 2) was 5.80%. The “Cell count normalized to cells treated” value (1 µM, 48 h, replicate 1) was 1.035, the “Cell count per well” value (1 µM, 48 h, replicate 1) was 157 and the “Population Fragmented Nuclei (%)” value (1 µM, 48 h, replicate 1) was 12.50%. For the same compound, the “Population Healthy Nuclei (%)” value (1 µM, 48 h, replicate 1) was 75.00%, the “Population Pyknosed Nuclei (%)” value (1 µM, 48 h, replicate 1) was 12.50% and the “Population apoptotic cell (%)” value (1 µM, 48 h, replicate 1) was 68.42%. The “Population cell that influence microtubule strucutre (%)” value (1 µM, 48 h, replicate 1) was 16.67%, the “Population with increased mitochondrial mass (%)” value (1 µM, 48 h, replicate 1) was 3.51% and the “Population with membrane disruption (%)” value (1 µM, 48 h, replicate 1) was 0.88%. The “Cell count normalized to cells treated” value (1 µM, 48 h, replicate 2) was 0.8596, the “Cell count per well” value (1 µM, 48 h, replicate 2) was 140 and the “Population Fragmented Nuclei (%)” value (1 µM, 48 h, replicate 2) was 27.61%. The “Population Healthy Nuclei (%)” value (1 µM, 48 h, replicate 2) was 55.22%, the “Population Pyknosed Nuclei (%)” value (1 µM, 48 h, replicate 2) was 17.16% and the “Population apoptotic cell (%)” value (1 µM, 48 h, replicate 2) was 39.13%. For the same compound, the “Population cell that influence microtubule strucutre (%)” value (1 µM, 48 h, replicate 2) was 47.30%, the “Population with increased mitochondrial mass (%)” value (1 µM, 48 h, replicate 2) was 9.46% and the “Population with membrane disruption (%)” value (1 µM, 48 h, replicate 2) was 2.70%. The cytotoxicity (1 μM, MRC-9) was “no cytotoxicity”, the “Cell count normalized to cells treated” value (10 µM, 0 h, replicate 1) was 0.9342 and the “Cell count per well” value (10 µM, 0 h, replicate 1) was 140. For the same compound, the “Population Fragmented Nuclei (%)” value (10 µM, 0 h, replicate 1) was 19.23%, the “Population Healthy Nuclei (%)” value (10 µM, 0 h, replicate 1) was 57.69% and the “Population Pyknosed Nuclei (%)” value (10 µM, 0 h, replicate 1) was 23.08%. The “Population apoptotic cell (%)” value (10 µM, 0 h, replicate 1) was 33.33%, the “Population cell that influence microtubule strucutre (%)” value (10 µM, 0 h, replicate 1) was 24.00% and the “Population with increased mitochondrial mass (%)” value (10 µM, 0 h, replicate 1) was 6.67%. For the same compound, the “Population with membrane disruption (%)” value (10 µM, 0 h, replicate 1) was 1.33%, the “Cell count normalized to cells treated” value (10 µM, 0 h, replicate 2) was 0.8634 and the “Cell count per well” value (10 µM, 0 h, replicate 2) was 154. The “Population Fragmented Nuclei (%)” value (10 µM, 0 h, replicate 2) was 23.88%, the “Population Healthy Nuclei (%)” value (10 µM, 0 h, replicate 2) was 43.28% and the “Population Pyknosed Nuclei (%)” value (10 µM, 0 h, replicate 2) was 32.84%. For the same compound, the “Population apoptotic cell (%)” value (10 µM, 0 h, replicate 2) was 40.91%, the “Population cell that influence microtubule strucutre (%)” value (10 µM, 0 h, replicate 2) was 39.66% and the “Population with increased mitochondrial mass (%)” value (10 µM, 0 h, replicate 2) was 15.52%. The “Population with membrane disruption (%)” value (10 µM, 0 h, replicate 2) was 8.62%, the “Cell count normalized to cells treated” value (10 µM, 12 h, replicate 1) was 0.8966 and the “Cell count per well” value (10 µM, 12 h, replicate 1) was 135. The “Population Fragmented Nuclei (%)” value (10 µM, 12 h, replicate 1) was 18.46%, the “Population Healthy Nuclei (%)” value (10 µM, 12 h, replicate 1) was 53.08% and the “Population Pyknosed Nuclei (%)” value (10 µM, 12 h, replicate 1) was 28.46%. The “Population apoptotic cell (%)” value (10 µM, 12 h, replicate 1) was 67.57%, the “Population cell that influence microtubule strucutre (%)” value (10 µM, 12 h, replicate 1) was 69.57% and the “Population with increased mitochondrial mass (%)” value (10 µM, 12 h, replicate 1) was 15.94%. For the same compound, the “Population with membrane disruption (%)” value (10 µM, 12 h, replicate 1) was 1.45%, the “Cell count normalized to cells treated” value (10 µM, 12 h, replicate 2) was 0.8165 and the “Cell count per well” value (10 µM, 12 h, replicate 2) was 136. The “Population Fragmented Nuclei (%)” value (10 µM, 12 h, replicate 2) was 28.57%, the “Population Healthy Nuclei (%)” value (10 µM, 12 h, replicate 2) was 55.46% and the “Population Pyknosed Nuclei (%)” value (10 µM, 12 h, replicate 2) was 15.97%. The “Population apoptotic cell (%)” value (10 µM, 12 h, replicate 2) was 47.37%, the “Population cell that influence microtubule strucutre (%)” value (10 µM, 12 h, replicate 2) was 83.33% and the “Population with increased mitochondrial mass (%)” value (10 µM, 12 h, replicate 2) was 30.30%. For the same compound, the “Population with membrane disruption (%)” value (10 µM, 12 h, replicate 2) was 7.58%, the “Cell count normalized to cells treated” value (10 µM, 24 h, replicate 1) was 0.8754 and the “Cell count per well” value (10 µM, 24 h, replicate 1) was 132. The “Population Fragmented Nuclei (%)” value (10 µM, 24 h, replicate 1) was 17.21%, the “Population Healthy Nuclei (%)” value (10 µM, 24 h, replicate 1) was 55.74% and the “Population Pyknosed Nuclei (%)” value (10 µM, 24 h, replicate 1) was 27.05%. The “Population apoptotic cell (%)” value (10 µM, 24 h, replicate 1) was 60.61%, the “Population cell that influence microtubule strucutre (%)” value (10 µM, 24 h, replicate 1) was 72.06% and the “Population with increased mitochondrial mass (%)” value (10 µM, 24 h, replicate 1) was 17.65%. The “Population with membrane disruption (%)” value (10 µM, 24 h, replicate 1) was 1.47%, the “Cell count normalized to cells treated” value (10 µM, 24 h, replicate 2) was 0.8068 and the “Cell count per well” value (10 µM, 24 h, replicate 2) was 133. The “Population Fragmented Nuclei (%)” value (10 µM, 24 h, replicate 2) was 30.89%, the “Population Healthy Nuclei (%)” value (10 µM, 24 h, replicate 2) was 56.10% and the “Population Pyknosed Nuclei (%)” value (10 µM, 24 h, replicate 2) was 13.01%. For the same compound, the “Population apoptotic cell (%)” value (10 µM, 24 h, replicate 2) was 56.25%, the “Population cell that influence microtubule strucutre (%)” value (10 µM, 24 h, replicate 2) was 65.22% and the “Population with increased mitochondrial mass (%)” value (10 µM, 24 h, replicate 2) was 20.29%. The “Population with membrane disruption (%)” value (10 µM, 24 h, replicate 2) was 5.80%, the “Cell count normalized to cells treated” value (10 µM, 48 h, replicate 1) was 0.8898 and the “Cell count per well” value (10 µM, 48 h, replicate 1) was 135. The “Population Fragmented Nuclei (%)” value (10 µM, 48 h, replicate 1) was 23.81%, the “Population Healthy Nuclei (%)” value (10 µM, 48 h, replicate 1) was 54.76% and the “Population Pyknosed Nuclei (%)” value (10 µM, 48 h, replicate 1) was 21.43%. For the same compound, the “Population apoptotic cell (%)” value (10 µM, 48 h, replicate 1) was 85.19%, the “Population cell that influence microtubule strucutre (%)” value (10 µM, 48 h, replicate 1) was 56.52% and the “Population with increased mitochondrial mass (%)” value (10 µM, 48 h, replicate 1) was 14.49%. The “Population with membrane disruption (%)” value (10 µM, 48 h, replicate 1) was 0.00%, the “Cell count normalized to cells treated” value (10 µM, 48 h, replicate 2) was 0.8904 and the “Cell count per well” value (10 µM, 48 h, replicate 2) was 145. For the same compound, the “Population Fragmented Nuclei (%)” value (10 µM, 48 h, replicate 2) was 38.30%, the “Population Healthy Nuclei (%)” value (10 µM, 48 h, replicate 2) was 58.16% and the “Population Pyknosed Nuclei (%)” value (10 µM, 48 h, replicate 2) was 3.55%. The “Population apoptotic cell (%)” value (10 µM, 48 h, replicate 2) was 60.00%, the “Population cell that influence microtubule strucutre (%)” value (10 µM, 48 h, replicate 2) was 71.95% and the “Population with increased mitochondrial mass (%)” value (10 µM, 48 h, replicate 2) was 18.29%. The “Population with membrane disruption (%)” value (10 µM, 48 h, replicate 2) was 3.66%.
